# Measurements published in publication PMC12274840 (The Journal of Biological Chemistry, 2025).
# Several values for one entry are separate records, joined by “and”; a condition that tells them apart may be missing. Equal values may be shown once.
# Legend:
# [1] = target: T1, CTX-M-14 Y105G (Escherichia coli, UniProt Q9L5C7, Y108G); assay type: biochemical
# T1 construct: 29 to 291 of CTX-M-14 (Q9L5C7); His tag with TEV cleavage site (N); made in house; host or cells: E. coli BL21 (DE3) pLysS
# [2] = target: T2, TEM-1 Y105G (Escherichia coli, UniProt P62593, Y103G); assay: Steady-state kinetics of substrate hydrolysis, TEM-1 Y105G; assay type: biochemical; details: phosphate buffer pH 6.4, 25 °C
# [3] = target: T3, BlaC WT (Mycobacterium tuberculosis, UniProt P9WKD3); assay type: biochemical
# T3 construct: correspond to residue numbers 41-307 of BlaC (Uniprot entry P9WKD3-1); His tag with TEV cleavage site (N); made in house; host or cells: E. coli BL21 (DE3) pLysS
# [4] = target: T4, CTX-M-14 WT (Escherichia coli, UniProt Q9L5C7); assay: biochemical
# T4 construct: 29 to 291 of CTX-M-14 (Q9L5C7); His tag with TEV cleavage site (N); made in house; host or cells: E. coli BL21 (DE3) pLysS
# [5] = target: T1, CTX-M-14 Y105G; assay: biochemical
# [6] = target: T2, TEM-1 Y105G; assay: In vitro inhibition of nitrocefin hydrolysis and simulation of inhibition curves, TEM-1 Y105G; assay type: biochemical
# [7] = target: T5, TEM-1 WT (Escherichia coli, UniProt P62593); details: phosphate buffer pH 6.4, 25 °C
# [8] = target: T3, BlaC WT; details: pH 6.4, cited from earlier work
# [9] = target: T5, TEM-1 WT; assay type: biochemical; design: 24 to 286 of TEM-1 (P62593); His tag with TEV cleavage site (N); made in house; host or cells: E. coli BL21 (DE3) pLysS
# [10] = nitrocefin parameter (Eq 7) in simulation of avibactam inhibition curves, CTX-M-14 Y105G
# [11] = nitrocefin parameter (Eq 7) in simulation of avibactam inhibition curves
# [12] = nitrocefin parameter (Eq 7) in simulation of clavulanic acid inhibition curves
# T3 sequence (P9WKD3 41-307): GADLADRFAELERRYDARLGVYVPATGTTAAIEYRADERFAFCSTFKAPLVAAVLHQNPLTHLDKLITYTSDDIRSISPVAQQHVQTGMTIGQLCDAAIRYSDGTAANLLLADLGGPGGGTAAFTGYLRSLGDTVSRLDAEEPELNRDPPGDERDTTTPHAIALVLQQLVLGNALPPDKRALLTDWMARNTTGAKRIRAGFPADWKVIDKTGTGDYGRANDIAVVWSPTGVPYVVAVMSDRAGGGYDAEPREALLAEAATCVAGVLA
compound,measurement,setting,value
O=C(Cc1cccs1)N[C@@H]1C(=O)N2C(C(=O)O)=C(/C=C/c3ccc([N+](=O)[O-])cc3[N+](=O)[O-])CS[C@H]12 [nitrocefin],kcat,"[1]; phosphate buffer pH 6.4, 25 °C",963 ± 117 s⁻¹
same,Km,"[1]; read-out: KM^app, phosphate buffer pH 6.4, 25 °C",700 ± 172 µM
same,kcat,[2],453 ± 80 s⁻¹
same,ka,[3],1.05e+06 M⁻¹ s⁻¹
same,kc,[3],82.5 s⁻¹ and 56 s⁻¹
same,Kd,[4],50 µM
same,kc,[4],545 s⁻¹
same,Kd,[5],760 µM
same,ka,[5]; [10],5e+07 M⁻¹ s⁻¹
same,kc,[5]; [10],460 s⁻¹
same,ka,[6]; [11],1e+07 M⁻¹ s⁻¹
same,kc,[6]; [11],95 s⁻¹
same,ka,[6]; [12],1e+07 M⁻¹ s⁻¹
same,kc,[6]; [12],154 s⁻¹
same,kcat,[7],933 ± 33 s⁻¹
same,kcat,[8],86 ± 2 s⁻¹
same,Km,[8]; read-out: KM^app,131 ± 2 µM
same,ka,[9],4.5e+07 M⁻¹ s⁻¹
same,kc,[9],830 s⁻¹ and 1040 s⁻¹
